In the experiment the test system is L1210 leukemia ip in BDF1 mice, survival T/C. Put plainly: NCI In Vivo Anticancer Drug Screen. Data for tumor model L1210 Leukemia (intraperitoneal) in B6D2F1 (BDF1) mice. The settings on record: endpoint: mean survival time, higher = longer survival. In short, it runs like this:
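Antitumor effect is assessed in tumor-bearing animals. Survival in the compound arm is compared with a vehicle-dosed control arm and expressed as their quotient.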

Where [1] appears, read: dose: 100.0 mg/kg/injection, schedule: Q01DX001 (ip), vehicle: carboxymethylcellulose (CMC).
Where [2] appears, read: dose: 200.0 mg/kg/injection, schedule: Q01DX001 (ip), vehicle: carboxymethylcellulose (CMC).
The mark [3] stands for this setting: dose: 400.0 mg/kg/injection, schedule: Q01DX001 (ip), vehicle: carboxymethylcellulose (CMC).
Setting [4] is: dose: 100.0 mg/kg/injection, schedule: Q01DX001 (ip), vehicle: other.
Setting [5] is: dose: 200.0 mg/kg/injection, schedule: Q01DX001 (ip), vehicle: other.
The mark [6] stands for this setting: dose: 100.0 mg/kg/injection, schedule: Q04DX003 (ip), vehicle: saline with Tween-80.
The mark [7] stands for this setting: dose: 200.0 mg/kg/injection, schedule: Q04DX003 (ip), vehicle: saline with Tween-80.
Setting [8] is: dose: 400.0 mg/kg/injection, schedule: Q04DX003 (ip), vehicle: saline with Tween-80.
Setting [9] is: dose: 100.0 mg/kg/injection, schedule: Q01DX009 (ip), vehicle: Klucel (hydroxypropylcellulose) (HPC).
[10] abbreviates: dose: 200.0 mg/kg/injection, schedule: Q01DX009 (ip), vehicle: Klucel (hydroxypropylcellulose) (HPC).
The mark [11] stands for this setting: dose: 400.0 mg/kg/injection, schedule: Q01DX009 (ip), vehicle: Klucel (hydroxypropylcellulose) (HPC).

“And” between values parts separate entries of the source, which are not always exact repeats. Equal entries are not always repeated. Toxic doses and inconclusive results are not listed.

For `O=C(Nc1ccc(Cl)cc1C(=O)c1ccccc1)c1ccc(Cl)cc1`, the T/C runs as follows: (dose: 100.0 mg/kg/injection, schedule: Q04DX002 (ip), vehicle: Klucel (hydroxypropylcellulose) (HPC)) 92 % of control; (dose: 200.0 mg/kg/injection, schedule: Q04DX002 (ip), vehicle: Klucel (hydroxypropylcellulose) (HPC)) 89 % of control; (dose: 400.0 mg/kg/injection, schedule: Q04DX002 (ip), vehicle: Klucel (hydroxypropylcellulose) (HPC)) 95 % of control.
With `CC(=O)Nc1cc(F)cc(F)c1Br`, the T/C is, setting by setting: under setting [1], 105 % of control; under setting [2], 102 % of control; under setting [3], 112 % of control.
With `Cc1nc2[nH]c(=S)[nH]c(=O)c2nc1C`, the T/C is, setting by setting: (dose: 16.0 mg/kg/injection, schedule: Q01DX Z (ip), vehicle: methylcellulose (MC)) 95 % of control; (dose: 31.0 mg/kg/injection, schedule: Q01DX Z (ip), vehicle: methylcellulose (MC)) 119 % of control; (dose: 62.0 mg/kg/injection, schedule: Q01DX Z (ip), vehicle: methylcellulose (MC)) 89 % of control; (dose: 125.0 mg/kg/injection, schedule: Q01DX Z (ip), vehicle: methylcellulose (MC)) 95 % of control and 101 % of control; (dose: 250.0 mg/kg/injection, schedule: Q01DX Z (ip), vehicle: methylcellulose (MC)) 112 % of control; (dose: 500.0 mg/kg/injection, schedule: Q01DX Z (ip), vehicle: methylcellulose (MC)) 89 % of control.
For the molecule `COC1C(O)C(CO)OC1n1cnc2c(=S)nc(N)[nH]c21` (stereo not given), the T/C (dose: 266.0 mg/kg/injection, schedule: Q01DX001 (ip), vehicle: carboxymethylcellulose (CMC)) is 153 % of control; the T/C under setting [3] is 157 % of control; the T/C (dose: 600.0 mg/kg/injection, schedule: Q01DX001 (ip), vehicle: carboxymethylcellulose (CMC)) is 153 % of control.
As to `Cn1c2c(sc1=O)CCC2`, the T/C reads like this: (dose: 50.0 mg/kg/injection, schedule: Q01DX Z (ip), vehicle: methylcellulose (MC)) 102 % of control and 105 % of control; under setting [4], 103 % of control; (dose: 100.0 mg/kg/injection, schedule: Q01DX Z (ip), vehicle: methylcellulose (MC)) 111 % of control; (dose: 100.0 mg/kg/injection, schedule: Q04DX003 (ip), vehicle: Klucel (hydroxypropylcellulose) (HPC)) 99 % of control; under setting [5], 111 % of control; (dose: 200.0 mg/kg/injection, schedule: Q01DX Z (ip), vehicle: methylcellulose (MC)) 93 % of control. The T/C by setting is: (dose: 200.0 mg/kg/injection, schedule: Q04DX003 (ip), vehicle: Klucel (hydroxypropylcellulose) (HPC)) 100 % of control; (dose: 400.0 mg/kg/injection, schedule: Q01DX001 (ip), vehicle: other) 105 % of control.
Regarding `C#CCN(C)CCO`, the T/C was 97 % of control under setting [6], 106 % of control under setting [7] and 100 % of control under setting [8].
For `CSc1ccc(OC(=O)Nc2cc([N+](=O)[O-])ccc2F)cc1C`, the T/C by setting is: (dose: 100.0 mg/kg/injection, schedule: Q04DX002 (ip), vehicle: saline with Tween-80) 89 % of control; (dose: 100.0 mg/kg/injection, schedule: Q04DX002 (ip), vehicle: saline) 92 % of control; (dose: 200.0 mg/kg/injection, schedule: Q04DX002 (ip), vehicle: saline with Tween-80) 93 % of control; (dose: 200.0 mg/kg/injection, schedule: Q04DX002 (ip), vehicle: saline) 110 % of control; (dose: 400.0 mg/kg/injection, schedule: Q04DX002 (ip), vehicle: saline with Tween-80) 91 % of control; (dose: 800.0 mg/kg/injection, schedule: Q04DX002 (ip), vehicle: saline with Tween-80) 93 % of control.
Regarding `O=P(CCC(F)(F)C(F)(F)C(F)(F)C(F)(F)C(F)(F)C(F)(F)C(F)(F)F)(N1CC1)N1CC1`, the T/C (dose: 75.0 mg/kg/injection, schedule: Q01DX001 (ip), vehicle: carboxymethylcellulose (CMC)) was 108 % of control.
On to `CC/C=C(\C)C1(CC)C(=O)N=C(N)NC1=O` (stereo not given), for which the T/C (dose: 150.0 mg/kg/injection, schedule: Q01DX001 (ip), vehicle: saline) was 105 % of control.
Turning to `NC(=O)NC(=O)c1nccnc1C(=O)O`, the T/C is, setting by setting: (dose: 100.0 mg/kg/injection, schedule: Q01DX001 (ip), vehicle: water) 88 % of control; (dose: 200.0 mg/kg/injection, schedule: Q01DX001 (ip), vehicle: water) 101 % of control; (dose: 400.0 mg/kg/injection, schedule: Q01DX001 (ip), vehicle: water) 87 % of control.
Regarding `CCOC(=O)CCCCCC(C)=O`, the T/C is, setting by setting: (dose: 100.0 mg/kg/injection, schedule: Q04DX003 (ip), vehicle: acetone) 103 % of control; (dose: 200.0 mg/kg/injection, schedule: Q04DX003 (ip), vehicle: acetone) 100 % of control; (dose: 400.0 mg/kg/injection, schedule: Q04DX003 (ip), vehicle: acetone) 95 % of control.
Consider `O=C(Nc1ccccc1C1=NCCN1)c1ccc(C(=O)Nc2ccccc2C2=NCCN2)cc1`, for which the T/C is 88 % of control (dose: 15.0 mg/kg/injection, schedule: Q01DX Z (ip), vehicle: methylcellulose (MC)); 95 % of control (dose: 30.0 mg/kg/injection, schedule: Q01DX Z (ip), vehicle: methylcellulose (MC)); 92 % of control (dose: 62.0 mg/kg/injection, schedule: Q01DX Z (ip), vehicle: carboxymethylcellulose (CMC)); 94 % of control (dose: 125.0 mg/kg/injection, schedule: Q01DX Z (ip), vehicle: carboxymethylcellulose (CMC)); 88 % of control (dose: 250.0 mg/kg/injection, schedule: Q01DX Z (ip), vehicle: carboxymethylcellulose (CMC)).
For `CCCCOC(=O)c1ccc(NC(=O)Nc2ccc(F)c([N+](=O)[O-])c2)cc1`, the T/C runs as follows: under setting [9], 98 % of control; under setting [10], 95 % of control; under setting [11], 101 % of control.
With `O=Cc1ccc(OCCBr)cc1`, the T/C by setting is: under setting [6], 98 % of control; under setting [7], 97 % of control; under setting [8], 103 % of control.
For `Cc1ccc(S(=O)(=O)N(Cc2ccc([N+](=O)[O-])cc2)c2ccccc2)cc1`, the T/C under setting [1] is 103 % of control, the T/C under setting [2] was 105 % of control and the T/C under setting [3] was 100 % of control.
For the molecule `CCOC(=O)C(C)Oc1ccccc1[N+](=O)[O-]` (stereo not given), the T/C by setting is: under setting [9], 93 % of control; under setting [10], 102 % of control; under setting [11], 102 % of control.
As to `COc1ccc(C(C)C(C)=O)cc1` (stereo not given), under “dose: 50.0 mg/kg/injection, schedule: Q01DX009 (ip), vehicle: saline with Tween-80”, the T/C is 95 % of control.
As for `N#CC(OS(=O)(=O)c1ccccc1)c1ccccc1` (stereo not given), the T/C (dose: 50.0 mg/kg/injection, schedule: Q01DX001 (ip), vehicle: other) is 89 % of control; the T/C under setting [4] is 97 % of control; the T/C under setting [5] is 105 % of control.
On to `CN(C)CCCN=Cc1ccccc1O.CN(C)CCCN=Cc1ccccc1O.[Ni+2]`, for which the T/C was 100 % of control (dose: 6.25 mg/kg/injection, schedule: Q04DX003 (ip), vehicle: saline with Tween-80); 94 % of control (dose: 12.5 mg/kg/injection, schedule: Q04DX003 (ip), vehicle: saline with Tween-80); 101 % of control (dose: 25.0 mg/kg/injection, schedule: Q04DX003 (ip), vehicle: saline with Tween-80).
With `CN(C)c1ccccc1CN1CCCN(Cc2ccccc2N(C)C)C1c1ccncc1`, the T/C was 96 % of control (dose: 6.0 mg/kg/injection, schedule: Q12HX018 (ip), vehicle: other); 103 % of control (dose: 12.0 mg/kg/injection, schedule: Q12HX018 (ip), vehicle: other); 101 % of control (dose: 24.0 mg/kg/injection, schedule: Q12HX018 (ip), vehicle: other).
Turning to `CCCCCCOC(=O)c1cccc2c1-c1ccccc1C2=O`, the T/C is 93 % of control under setting [1], 93 % of control under setting [2] and 98 % of control under setting [3].

Values taken from PubChem BioAssay AID248 (DTP/NCI, 2004).
